Results published in PMC6337391 (Molecules, 2019).
Read-outs that look alike come from different tables or passages of the source.

How the values were obtained:
[1] = In vitro lipid peroxidation of liposomes
[2] = ABTS•+ decolorization assay
Summary of the method: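 Compounds (10 mM DMSO stocks, diluted) added to ABTS•+ radical generated by potassium persulfate oxidation of ABTS. Decolorization followed as absorbance at room temperature, with Trolox as standard.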

[3] = Inhibition of linoleic acid lipid peroxidation (AAPH)
Summary of the method: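 Sodium linoleate oxidation was initiated by AAPH in 0.05 M phosphate buffer, pH 7.4, at 37 °C, with test compound present and DMSO as blank. Conjugated diene hydroperoxide formation was followed as the absorbance increase at 234 nm.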

[4] = design: method as in PMID 25798685; details: RP-TLC, methanol/water 70/30, SD < 10%; cited from earlier work
[5] = design: method as in PMID 25798685; details: cited from earlier work
[6] = target: acetyl-cholinesterase (AChE) (Electrophorus electricus, UniProt O42275); details: cited from earlier work
Chain of acetyl-cholinesterase (AChE) (O42275 24-633): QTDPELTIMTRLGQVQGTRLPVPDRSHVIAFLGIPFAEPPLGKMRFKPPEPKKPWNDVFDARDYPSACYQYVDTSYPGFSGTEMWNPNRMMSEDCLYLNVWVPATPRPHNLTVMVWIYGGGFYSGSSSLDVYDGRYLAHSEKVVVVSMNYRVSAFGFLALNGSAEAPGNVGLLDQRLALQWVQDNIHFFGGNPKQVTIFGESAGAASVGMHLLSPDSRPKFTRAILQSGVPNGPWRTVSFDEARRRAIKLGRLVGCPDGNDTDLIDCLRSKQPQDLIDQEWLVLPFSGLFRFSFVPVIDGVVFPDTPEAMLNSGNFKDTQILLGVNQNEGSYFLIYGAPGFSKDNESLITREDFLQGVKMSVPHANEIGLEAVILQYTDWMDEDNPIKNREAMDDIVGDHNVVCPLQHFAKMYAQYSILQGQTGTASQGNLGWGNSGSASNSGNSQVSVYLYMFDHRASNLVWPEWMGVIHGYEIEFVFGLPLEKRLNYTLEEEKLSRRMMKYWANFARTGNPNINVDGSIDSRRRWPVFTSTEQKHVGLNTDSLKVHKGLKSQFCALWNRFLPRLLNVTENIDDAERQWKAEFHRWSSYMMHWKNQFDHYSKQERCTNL

[7] = system: L929 mouse fibroblasts cells; design: method as in PMID 25798685; details: 24-h incubation, cited from earlier work
[8] = design: method as in PMID 25798685; details: DPPH, cited from earlier work
soybean lipoxygenase [9] = target: T1, soybean lipoxygenase (Glycine max, UniProt P08170); design: method as in PMID 25798685; details: cited from earlier work
T1 sequence (P08170 1-839): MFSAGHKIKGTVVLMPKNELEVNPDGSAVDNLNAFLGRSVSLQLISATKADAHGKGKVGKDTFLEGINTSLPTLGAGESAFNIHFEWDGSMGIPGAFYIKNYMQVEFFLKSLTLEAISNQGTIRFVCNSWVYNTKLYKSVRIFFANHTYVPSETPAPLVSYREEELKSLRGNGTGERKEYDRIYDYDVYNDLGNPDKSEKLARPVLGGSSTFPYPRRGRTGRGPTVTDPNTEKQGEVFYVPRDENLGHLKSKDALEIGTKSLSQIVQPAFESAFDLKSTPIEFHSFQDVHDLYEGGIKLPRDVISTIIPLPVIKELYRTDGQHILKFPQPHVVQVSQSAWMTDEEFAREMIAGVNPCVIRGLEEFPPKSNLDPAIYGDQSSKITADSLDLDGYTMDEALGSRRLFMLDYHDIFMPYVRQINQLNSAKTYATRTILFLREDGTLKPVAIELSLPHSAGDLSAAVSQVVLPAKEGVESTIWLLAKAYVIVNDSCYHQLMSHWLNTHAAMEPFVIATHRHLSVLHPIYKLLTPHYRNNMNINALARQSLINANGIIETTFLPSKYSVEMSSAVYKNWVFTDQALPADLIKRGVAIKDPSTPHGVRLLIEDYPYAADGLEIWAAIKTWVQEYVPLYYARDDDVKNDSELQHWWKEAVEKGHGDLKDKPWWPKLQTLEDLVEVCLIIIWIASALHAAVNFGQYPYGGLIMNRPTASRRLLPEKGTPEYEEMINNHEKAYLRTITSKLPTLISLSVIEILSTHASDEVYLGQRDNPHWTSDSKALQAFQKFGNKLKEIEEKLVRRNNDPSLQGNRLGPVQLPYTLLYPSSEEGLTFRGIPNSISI

[10] = Lipophilicity as RM values by RP-TLC; assay type: physicochemical; design: key: RM = log[(1/Rf) − 1]; details: methanol/water 70/30, SD < 10%
Summary of the method: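 Reversed-phase TLC on silica gel plates impregnated with 5% (v/v) liquid paraffin, methanol/water 70/30 (v/v) mobile phase, saturated tanks at 24 °C, UV detection. RM = log[(1/Rf) − 1] from five Rf measurements.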

[11] = Reducing activity with the stable radical DPPH
Summary of the method: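 DPPH (final 0.05 mM) in absolute ethanol mixed with an equal volume of compound at 0.05 or 0.1 mM, ethanol as control. Absorbance at 517 nm read at room temperature after 20 and 60 min, expressed as reducing activity RA%.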

[12] = system: L929 mouse fibroblasts cells; assay: Cytotoxicity, propidium iodide fluorescence method; assay type: cell-based; details: 24-h incubation
Summary of the method: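 L929 cells in EMEM with 10% horse serum were allowed to attach for 24 h, then exposed to 1, 10, 20, 50 and 100 μM compound for 24 h at 37 °C. Cells were detached, stained with propidium iodide, and cell death was measured by flow cytometry.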

soybean lipoxygenase [13] = target: T1, soybean lipoxygenase; assay: biochemical; assay type: biochemical; details: soybean LOX; for IC50: read-out: LOX IC50
Summary of the method: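 Soybean LOX (enzyme solution 1/9 × 10^−4 w/v in saline) incubated at room temperature with sodium linoleate ([…]) in tris buffer pH 9. Compounds added from DMSO stocks. IC50 derived from several concentrations.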

Structure (SMILES)	% Inhb. of Liposomes LP @ 100 μM [1] [%]	ABTS•+ Inhb. % @ 100 μM [2]	AAPH% @ 100 μM (anti-lipid peroxidation) [3] [%]	RM [4]	ABTS•+ Inhb. % @ 100 μM [5]	% AChE Inhb. @ 100 μM [6] [%]	1 μM Average (% pi) ± σ [7] [%]	10 μM Average (% pi) ± σ [7] [%]	20 μM Average (% pi) ± σ [7] [%]	50 μM Average (% pi) ± σ [7] [%]	100 μM Average (% pi) ± σ [7] [%]	RA% 100 μM 20 min [8] [%]	RA% 100 μM 60 min [8] [%]	% LOX Inhb. @ 100 μM (soybean lipoxygenase [9]) [%]	RM [10]	RA% 100 μM 20 min [11]	RA% 100 μM 60 min [11]	% LOX Inhb. @ 100 μM (soybean lipoxygenase [13]) [%]	other results
Cc1c(C)c2c(c(C)c1O)CCC(C)(C(=O)O)O2 (centres unmarked) [Trolox, reference compound]	69	96%	93	–	–	–	–	–	–	–	–	–	–	–	–	–	–	–	–
O=C(/C=C/c1ccc(OCc2ccc(Br)cc2)cc1)c1ccc(O)cc1 [a1, (E)-3-(4-((4-bromobenzyl)oxy)phenyl)-1-(4-hydroxyphenyl) prop-2-en-1-one]	–	–	–	0.34	No	7	1 ± 0.6	5 ± 2.8	5.5 ± 0.71	32 ± 4.9	32 ± 4.9	1	6	14	–	–	–	–	–
O=C(/C=C/c1cccc(Oc2ccccc2)c1)c1ccc(O)cc1 [a2, (E)-1-(4-hydroxyphenyl)-3-(3-phenoxyphenyl) prop-2-en-1-one]	–	–	–	0.36	No	26	1 ± 0.5	3.5 ± 0.7	27.5 ± 8.9	63 ± 11.2	63 ± 11.2	3	4	10	–	–	–	–	–
CN(C)c1ccc(/C=C/C=C/C(=O)c2ccc(O)cc2)cc1 [a3, (2E,4E)-5-(4-(dimethylamino)phenyl)-1-(4-hydroxyphenyl) penta-2,4-dien-1-one]	–	–	–	−0.69	12%	50	14 ± 3.5	15 ± 0.8	19 ± 1.4	14 ± 0.7	14 ± 0.7	18	17	56	–	–	–	–	IC50 (soybean lipoxygenase [9]; soybean LOX): 100 µM
O=C(/C=C/c1cccc2ccccc12)c1ccc(O)cc1 [a4, (E)-1-(4-hydroxyphenyl)-3-(naphthalen-1-yl) prop-2-en-1-one]	–	–	–	−0.26	No	25	8.5 ± 2.1	12 ± 4.2	29.5 ± 0.6	51 ± 9.9	51 ± 9.9	7	3	44	–	–	–	–	–
CC(/C=C/C(=O)c1ccc(OCCCOc2ccc(C(=O)/C=C/C(C)=C/c3ccccc3)cc2)cc1)=C\c1ccccc1 [c8, (2E,2′E,4E,4′E)-1,1′-((propane-1,3-diylbis(oxy))bis(4,1-phenylene))bis(4-methyl-5-phenylpenta-2,4-dien-1-one)]	–	No	75	–	–	–	–	–	–	–	–	–	–	–	−0.85	No	no	26.5	1 μM Average (% pi) ± σ [12]: 35.72 ± 10.23%; 10 μM Average (% pi) ± σ [12]: 29.05 ± 9.62%; 20 μM Average (% pi) ± σ [12]: 35.69 ± 5.85%; 50 μM Average (% pi) ± σ [12]: 38.7 ± 4.96%; 100 μM Average (% pi) ± σ [12]: 38.7 ± 4.96%
O=C(/C=C/C(Br)=C\c1ccccc1)c1ccc(OCCCOc2ccc(C(=O)/C=C/C(Br)=C\c3ccccc3)cc2)cc1 [c9, (2E,2′E,4E,4′E)-1,1′-((propane-1,3-diylbis(oxy))bis(4,1-phenylene))bis(4-bromo-5-phenylpenta-2,4-dien-1-one)]	–	No	32	–	–	–	–	–	–	–	–	–	–	–	−0.86	No	no	24.5	1 μM Average (% pi) ± σ [12]: 12.5 ± 10.31%; 10 μM Average (% pi) ± σ [12]: 15.88 ± 6.31%; 20 μM Average (% pi) ± σ [12]: 28.76 ± 2.74%; 50 μM Average (% pi) ± σ [12]: 29.53 ± 6.87%; 100 μM Average (% pi) ± σ [12]: 29.53 ± 6.87%
O=C(/C=C/c1ccco1)c1ccc(OCCCOc2ccc(C(=O)/C=C/c3ccco3)cc2)cc1 [c10, (2E,2′E)-1,1′-((propane-1,3-diylbis(oxy))bis(4,1-phenylene))bis(3-(furan-2-yl)prop-2-en-1-one)]	–	11%	77	–	–	–	–	–	–	–	–	–	–	–	0.7	No	no	57	1 μM Average (% pi) ± σ [12]: 18.10 ± 11.82%; 10 μM Average (% pi) ± σ [12]: 13.48 ± 10.36%; 20 μM Average (% pi) ± σ [12]: 25.93 ± 9.73%; 50 μM Average (% pi) ± σ [12]: 32.11 ± 9.38%; 100 μM Average (% pi) ± σ [12]: 32.11 ± 9.38%; IC50 (soybean lipoxygenase [13]): 85 µM
CN(C)c1ccc(/C=C/C=C/C(=O)c2ccc(OCCOc3ccc(C(=O)/C=C/C=C/c4ccc(N(C)C)cc4)cc3)cc2)cc1 [ei]	4	98%	71	–	–	–	–	–	–	–	–	–	–	–	0.56	No	no	77	IC50 (soybean lipoxygenase [13]): 62.5 µM
CN(C)c1ccc(/C=C/C=C/C(=O)c2ccc(OCCCCCOc3ccc(C(=O)/C=C/C=C/c4ccc(N(C)C)cc4)cc3)cc2)cc1 [eiv, (2E,2′E,4E,4′E)-1,1′-((pentane-1,5-diylbis(oxy))bis(4,1-phenylene))bis(5-(4-(dimethylamino)phenyl)penta-2,4-dien-1-one)]	77	73%	72	–	–	–	–	–	–	–	–	–	–	–	0.13	No	no	23	–
CN(C)c1ccc(/C=C/C=C/C(=O)c2ccc(OCCCCCCCOc3ccc(C(=O)/C=C/C=C/c4ccc(N(C)C)cc4)cc3)cc2)cc1 [evi, (2E,2′E,4E,4′E)-1,1′-((heptane-1,7-diylbis(oxy))bis(4,1-phenylene))bis(5-(4-(dimethylamino)phenyl)penta-2,4-dien-1-one)]	64	79%	64	–	–	–	–	–	–	–	–	–	–	–	–	No	no	65	IC50 (soybean lipoxygenase [13]): 76 µM
